Measurements published in patent publication US11846631B2, “Methods for determining drug effects on a mature cardiomyocyte” (ORGANOS, INC., priority 2018, dated 2023).

Key:
the other currents = assay: Inversion of voltage and calcium traces measured in hiPSC-CMs in a cardiac MPS (channel block identification); type: cell-based, human; details: cisapride 10 nM; measured MPS data of hiPSC-CMs (FIG. 5)
From the text: [formula] […] The Minimization Procedure

IKr = IKr (Homo sapiens, UniProt Q12809); details: from the literature; cited from earlier work
ICaL = ICaL (Homo sapiens, UniProt Q13936); details: from the literature; cited from earlier work
Chain of ICaL (Q13936 whole entry): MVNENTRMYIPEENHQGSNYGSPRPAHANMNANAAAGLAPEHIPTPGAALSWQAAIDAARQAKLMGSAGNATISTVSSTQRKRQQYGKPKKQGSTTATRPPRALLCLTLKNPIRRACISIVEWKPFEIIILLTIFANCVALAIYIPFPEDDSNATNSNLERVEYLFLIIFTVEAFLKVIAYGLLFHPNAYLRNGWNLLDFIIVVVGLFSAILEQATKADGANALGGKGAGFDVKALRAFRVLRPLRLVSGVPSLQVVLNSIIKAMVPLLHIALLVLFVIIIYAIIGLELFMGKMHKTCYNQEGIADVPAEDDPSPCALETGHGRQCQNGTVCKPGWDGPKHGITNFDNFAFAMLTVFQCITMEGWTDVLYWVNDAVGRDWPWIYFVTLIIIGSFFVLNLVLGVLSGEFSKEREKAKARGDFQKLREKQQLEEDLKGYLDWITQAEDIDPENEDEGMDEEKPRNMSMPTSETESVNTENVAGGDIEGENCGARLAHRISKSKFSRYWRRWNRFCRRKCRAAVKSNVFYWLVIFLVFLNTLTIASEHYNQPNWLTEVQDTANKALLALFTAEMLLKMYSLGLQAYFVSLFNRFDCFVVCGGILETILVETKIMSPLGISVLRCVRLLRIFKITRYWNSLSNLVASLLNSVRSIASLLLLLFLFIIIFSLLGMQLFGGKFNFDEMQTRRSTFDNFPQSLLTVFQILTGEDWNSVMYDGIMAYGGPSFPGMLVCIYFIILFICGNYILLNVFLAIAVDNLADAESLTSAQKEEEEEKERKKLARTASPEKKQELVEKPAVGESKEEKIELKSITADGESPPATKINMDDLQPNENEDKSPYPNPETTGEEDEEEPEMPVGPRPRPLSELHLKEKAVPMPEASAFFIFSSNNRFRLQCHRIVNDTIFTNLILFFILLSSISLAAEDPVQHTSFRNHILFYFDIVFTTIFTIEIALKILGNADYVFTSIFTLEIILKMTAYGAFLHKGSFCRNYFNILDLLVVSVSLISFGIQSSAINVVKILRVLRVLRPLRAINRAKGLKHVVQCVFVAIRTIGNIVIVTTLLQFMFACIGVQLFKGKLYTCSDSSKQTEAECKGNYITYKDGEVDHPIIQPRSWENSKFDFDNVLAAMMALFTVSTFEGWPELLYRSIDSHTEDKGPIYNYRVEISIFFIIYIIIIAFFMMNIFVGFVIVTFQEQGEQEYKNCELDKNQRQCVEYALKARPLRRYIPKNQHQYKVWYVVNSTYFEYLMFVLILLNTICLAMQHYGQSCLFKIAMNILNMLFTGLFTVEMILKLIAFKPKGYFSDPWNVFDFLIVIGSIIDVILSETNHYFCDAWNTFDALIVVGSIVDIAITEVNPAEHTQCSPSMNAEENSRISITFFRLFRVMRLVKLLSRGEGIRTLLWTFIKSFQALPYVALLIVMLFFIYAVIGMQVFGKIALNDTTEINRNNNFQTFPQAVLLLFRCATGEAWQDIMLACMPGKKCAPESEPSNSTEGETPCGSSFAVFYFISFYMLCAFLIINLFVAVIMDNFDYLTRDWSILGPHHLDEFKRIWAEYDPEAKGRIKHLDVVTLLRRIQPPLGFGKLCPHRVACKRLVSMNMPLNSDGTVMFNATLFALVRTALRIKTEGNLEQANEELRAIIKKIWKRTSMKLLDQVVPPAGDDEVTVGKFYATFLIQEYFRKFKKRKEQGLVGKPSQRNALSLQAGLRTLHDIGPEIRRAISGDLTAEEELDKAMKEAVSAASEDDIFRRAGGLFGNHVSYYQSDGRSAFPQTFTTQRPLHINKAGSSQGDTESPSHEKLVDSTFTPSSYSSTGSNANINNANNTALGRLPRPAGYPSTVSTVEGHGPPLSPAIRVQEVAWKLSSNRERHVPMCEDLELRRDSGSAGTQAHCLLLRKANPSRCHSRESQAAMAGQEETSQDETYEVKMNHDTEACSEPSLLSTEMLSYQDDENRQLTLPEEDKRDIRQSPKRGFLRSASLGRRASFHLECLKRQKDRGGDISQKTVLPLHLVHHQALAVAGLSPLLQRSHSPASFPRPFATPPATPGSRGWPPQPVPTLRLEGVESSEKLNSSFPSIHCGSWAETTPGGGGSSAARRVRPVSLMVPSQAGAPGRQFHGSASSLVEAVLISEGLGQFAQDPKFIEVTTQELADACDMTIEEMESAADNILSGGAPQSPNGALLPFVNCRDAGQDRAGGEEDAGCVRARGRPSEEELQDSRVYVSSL
Chain of ICaL (Q08289 whole entry partner): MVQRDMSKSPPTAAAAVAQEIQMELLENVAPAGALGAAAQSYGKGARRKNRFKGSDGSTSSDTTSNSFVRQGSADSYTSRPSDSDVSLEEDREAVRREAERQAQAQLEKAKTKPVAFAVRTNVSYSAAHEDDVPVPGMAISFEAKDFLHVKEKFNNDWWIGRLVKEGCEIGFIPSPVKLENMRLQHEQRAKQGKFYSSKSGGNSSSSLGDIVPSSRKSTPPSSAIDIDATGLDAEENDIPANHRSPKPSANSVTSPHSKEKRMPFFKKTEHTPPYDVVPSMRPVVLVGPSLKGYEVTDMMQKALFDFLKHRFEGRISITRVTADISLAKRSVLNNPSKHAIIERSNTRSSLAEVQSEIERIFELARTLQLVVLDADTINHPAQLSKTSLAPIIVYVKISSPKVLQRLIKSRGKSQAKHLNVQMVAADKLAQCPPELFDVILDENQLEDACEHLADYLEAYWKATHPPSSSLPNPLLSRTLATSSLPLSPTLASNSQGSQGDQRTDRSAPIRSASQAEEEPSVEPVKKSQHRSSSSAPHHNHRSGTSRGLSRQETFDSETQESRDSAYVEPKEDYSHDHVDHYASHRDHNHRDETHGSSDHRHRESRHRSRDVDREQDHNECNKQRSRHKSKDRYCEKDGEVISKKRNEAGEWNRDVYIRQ
Chain of ICaL (P54289 25-946 partner limits assumed): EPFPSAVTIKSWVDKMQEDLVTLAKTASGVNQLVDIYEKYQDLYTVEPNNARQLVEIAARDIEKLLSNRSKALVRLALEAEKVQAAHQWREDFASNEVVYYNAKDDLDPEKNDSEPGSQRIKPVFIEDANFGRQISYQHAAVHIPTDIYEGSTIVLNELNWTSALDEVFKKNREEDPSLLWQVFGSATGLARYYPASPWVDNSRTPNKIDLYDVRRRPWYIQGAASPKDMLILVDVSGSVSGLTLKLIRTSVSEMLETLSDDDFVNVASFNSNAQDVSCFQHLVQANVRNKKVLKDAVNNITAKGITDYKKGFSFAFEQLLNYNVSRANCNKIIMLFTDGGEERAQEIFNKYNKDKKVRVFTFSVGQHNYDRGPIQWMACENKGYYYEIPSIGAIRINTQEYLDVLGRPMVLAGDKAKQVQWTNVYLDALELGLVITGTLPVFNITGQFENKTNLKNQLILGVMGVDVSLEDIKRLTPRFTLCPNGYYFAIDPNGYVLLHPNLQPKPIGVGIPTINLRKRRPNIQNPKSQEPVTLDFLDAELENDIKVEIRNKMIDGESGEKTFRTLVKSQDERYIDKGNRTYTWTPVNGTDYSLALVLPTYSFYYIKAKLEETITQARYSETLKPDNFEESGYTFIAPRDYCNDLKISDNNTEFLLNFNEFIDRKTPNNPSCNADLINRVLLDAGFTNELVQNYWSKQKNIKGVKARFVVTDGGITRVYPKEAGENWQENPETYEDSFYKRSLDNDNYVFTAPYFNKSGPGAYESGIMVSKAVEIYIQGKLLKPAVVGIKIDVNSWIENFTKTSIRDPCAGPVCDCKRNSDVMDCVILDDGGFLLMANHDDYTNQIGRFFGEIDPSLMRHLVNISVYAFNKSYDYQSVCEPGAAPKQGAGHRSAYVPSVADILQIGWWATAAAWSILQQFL
Chain of ICaL (P54289 947-1103 partner limits assumed): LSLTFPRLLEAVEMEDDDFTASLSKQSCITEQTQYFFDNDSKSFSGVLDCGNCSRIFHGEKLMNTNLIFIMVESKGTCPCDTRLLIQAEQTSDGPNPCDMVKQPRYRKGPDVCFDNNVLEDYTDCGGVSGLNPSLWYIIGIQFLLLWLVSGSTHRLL

Chain of IKr (Q12809 whole entry): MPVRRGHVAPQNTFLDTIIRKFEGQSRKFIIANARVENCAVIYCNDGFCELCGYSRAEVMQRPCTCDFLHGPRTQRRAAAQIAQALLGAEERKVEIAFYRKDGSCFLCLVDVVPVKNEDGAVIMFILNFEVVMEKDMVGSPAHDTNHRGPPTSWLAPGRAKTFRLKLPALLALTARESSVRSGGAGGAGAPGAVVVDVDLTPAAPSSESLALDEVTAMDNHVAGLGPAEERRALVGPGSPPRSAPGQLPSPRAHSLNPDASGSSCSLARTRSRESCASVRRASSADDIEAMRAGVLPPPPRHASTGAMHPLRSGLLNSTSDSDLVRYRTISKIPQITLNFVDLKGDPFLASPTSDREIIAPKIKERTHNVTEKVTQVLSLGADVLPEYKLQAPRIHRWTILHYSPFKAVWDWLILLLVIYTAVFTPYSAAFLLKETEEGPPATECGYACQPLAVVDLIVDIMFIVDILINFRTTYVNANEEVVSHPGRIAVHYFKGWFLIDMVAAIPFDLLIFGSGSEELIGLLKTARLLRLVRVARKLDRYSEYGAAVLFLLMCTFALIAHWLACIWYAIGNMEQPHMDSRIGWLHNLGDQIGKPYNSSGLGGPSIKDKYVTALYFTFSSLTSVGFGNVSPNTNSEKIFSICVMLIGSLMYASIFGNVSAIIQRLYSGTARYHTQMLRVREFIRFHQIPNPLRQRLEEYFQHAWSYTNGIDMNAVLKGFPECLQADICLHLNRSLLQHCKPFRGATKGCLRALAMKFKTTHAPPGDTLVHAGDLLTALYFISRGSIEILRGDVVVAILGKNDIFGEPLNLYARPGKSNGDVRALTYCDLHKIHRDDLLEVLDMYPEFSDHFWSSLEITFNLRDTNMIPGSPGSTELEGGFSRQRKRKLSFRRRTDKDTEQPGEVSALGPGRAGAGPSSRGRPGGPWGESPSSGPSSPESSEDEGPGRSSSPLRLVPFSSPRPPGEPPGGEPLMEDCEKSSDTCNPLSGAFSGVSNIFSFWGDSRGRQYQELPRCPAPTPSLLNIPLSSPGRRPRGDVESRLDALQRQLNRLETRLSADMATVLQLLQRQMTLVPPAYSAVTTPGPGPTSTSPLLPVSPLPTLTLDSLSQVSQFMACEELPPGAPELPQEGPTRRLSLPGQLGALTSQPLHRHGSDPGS

| SMILES | Effect on the other currents, full inversion procedure (the other currents) | Known effect on IKr (IKr) | Known effect on ICaL (ICaL) |
| --- | --- | --- | --- |
| COc1cc(N)c(Cl)cc1C(=O)NC1CCN(CCCOc2ccc(F)cc2)CC1OC (stereo not drawn) [cisapride] | nearly unaffected | blocks | – |
| COc1ccc(CCN(C)CCCC(C#N)(c2ccc(OC)c(OC)c2)C(C)C)cc1OC (stereo not drawn) [verapamil] | – | – | blocks |
